Data: paper PMC12198282, “Application of a high-density microelectrode array assay using a 3D human iPSC-derived brain microphysiological system model for in vitro neurotoxicity screening of environmental compounds” (Archives of Toxicology, 2025)
Read-outs that look alike come from different tables or passages of the source.

Tests used:
2D rat cortical cultures [1] = conditions: cited from earlier work; for hitc CCTE_Shafer_MEA_dev_AB: rNFA mc5 hit call
2D rat cortical cultures [2] = conditions: cited from earlier work; for AC50: rNFA mc5; for hitc CCTE_Shafer_MEA_dev_active_electrodes_number / hitc CCTE_Shafer_MEA_dev_burst_duration_mean / hitc CCTE_Shafer_MEA_dev_burst_rate / hitc CCTE_Shafer_MEA_dev_bursting_electrodes_number / hitc CCTE_Shafer_MEA_dev_correlation_coefficient_mean / hitc CCTE_Shafer_MEA_dev_firing_rate_mean / hitc CCTE_Shafer_MEA_dev_inter_network_spike_interval_mean / hitc CCTE_Shafer_MEA_dev_interburst_interval_mean / hitc CCTE_Shafer_MEA_dev_mutual_information_norm / hitc CCTE_Shafer_MEA_dev_network_spike_duration_std / hitc CCTE_Shafer_MEA_dev_network_spike_number / hitc CCTE_Shafer_MEA_dev_network_spike_peak / hitc CCTE_Shafer_MEA_dev_per_burst_interspike_interval / hitc CCTE_Shafer_MEA_dev_per_burst_spike_percent / hitc CCTE_Shafer_MEA_dev_per_network_spike_spike_number_mean / hitc CCTE_Shafer_MEA_dev_per_network_spike_spike_percent / hitc CCTE_Shafer_MEA_dev_spike_duration_mean: rNFA mc5 hit call; for hitc CCTE_Shafer_MEA_dev_burst_duration_mean: aenm burst_duration_mean; for hitc CCTE_Shafer_MEA_dev_burst_rate: aenm burst_rate; for hitc CCTE_Shafer_MEA_dev_firing_rate_mean: aenm firing_rate_mean; for hitc CCTE_Shafer_MEA_dev_inter_network_spike_interval_mean: aenm inter_network_spike_interval_mean; for hitc CCTE_Shafer_MEA_dev_interburst_interval_mean: aenm interburst_interval_mean; for hitc CCTE_Shafer_MEA_dev_network_spike_duration_std: aenm network_spike_duration_std; for hitc CCTE_Shafer_MEA_dev_network_spike_number: aenm network_spike_number; for hitc CCTE_Shafer_MEA_dev_per_burst_interspike_interval: aenm per_burst_interspike_interval
BrainSpheres = assay: Cytotoxicity evaluation, resazurin assay (BrainSphere.Cyto); format: cell-based, human; conditions: for AC50: day 13, Supplement 3 prints it also for curves with hit call 0, read-out: ac50 BrainSphere.Cyto; for hitc BrainSphere.Cyto: key: 1 (active); 0 (inactive)
Protocol: For the resazurin assay, BrainSpheres were cultured for 7 weeks in non-treated 6-well plates under gyratory shaking. Subsequently, the cells were exposed in the same manner as the HD-MEA plates. This assay was used to determine cell viability after exposure for 13 days to the different compounds. After exposure, resazurin diluted in PBS was added directly to the 6-well plates to a final concentration of 0.1 mg/ml. The plates were then put in an incubator for 3 h at 37 °C, 5% CO2. Then, 100 µl of the media was collected and transferred in a 96-well plate for fluorescence analysis, which was done at ex:530 nm/em:590 nm in a multi-well fluorometric reader CytoFluor series 4000 (PerSeptive Biosystems, Inc).
Ten metrics were measured to evaluate changes in neural activity in the BrainSphere MEA assay (Table 3). Considering the complexity of the data which includes seven recording days for each single ROI in a well, an area under the curve (AUC) metric was used to reduce activity across time as described in previous publications (Brown et al. [2016]; Frank et al. [2017b]; Shafer et al. [2019]). […] For concentration–response modeling, the mean AUC values across all the BrainSpheres per well (technical replicates) was computed for each endpoint, such that each concentration included biological replicates from at least three separate wells on three separate plates, representing each individual experiment. The mean AUC values were used for concentration–response modeling using the R package tcplfit2 (version 0.1.6) (Sheffield et al. [2022]). Data were normalized as a percent of vehicle control wells by plate using the equation: resp.pc=rval-bval/bval×100 where resp.pc is the percent of control value, rval is the response value, and bval is the baseline value (defined as the mean of the vehicle control and the lowest tested concentration). […] The activity cutoff was defined as 3 times the median absolute deviation (bmad) of baseline values. A curve was defined as ‘active’ if the continuous hit call was ≥ 0.9. See Supplemental Table 1 for the bmad, activity cutoff threshold, SD, and benchmark response for each endpoint in the BrainSphere MEA. Potency was defined as the concentration at 50% maximal activity (AC50 log10 µM).

[3] = aenm per_network_spike_spike_number_mean, read-out: ac50 CCTE_Shafer_MEA_dev_per_network_spike_spike_number_mean
[4] = aenm per_network_spike_spike_percent, read-out: ac50 CCTE_Shafer_MEA_dev_per_network_spike_spike_percent
[5] = aenm bursting_electrodes_number
[6] = aenm correlation_coefficient_mean
[7] = aenm per_network_spike_spike_number_mean
[8] = aenm per_network_spike_spike_percent
[9] = ref Brown et al. [2016], Carstens et al. [2022], Frank et al. [2017b], Shafer et al. [2019], ToxCast invitrodb (v4.2)
Throughout, for hitc CCTE Shafer MEA dev active electrodes number: key: 1 (active); 0 (inactive).
Throughout, for hitc CCTE Shafer MEA dev burst duration mean: key: 1 (active); 0 (inactive).
Throughout, for hitc CCTE Shafer MEA dev burst rate: key: 1 (active); 0 (inactive).
Throughout, for hitc CCTE Shafer MEA dev bursting electrodes number: key: 1 (active); 0 (inactive).
Throughout, for hitc CCTE Shafer MEA dev correlation coefficient mean: key: 1 (active); 0 (inactive).
Throughout, for hitc CCTE Shafer MEA dev firing rate mean: key: 1 (active); 0 (inactive).
Throughout, for hitc CCTE Shafer MEA dev inter network spike interval mean: key: 1 (active); 0 (inactive).
Throughout, for hitc CCTE Shafer MEA dev interburst interval mean: key: 1 (active); 0 (inactive).
Throughout, for hitc CCTE Shafer MEA dev mutual information norm: key: 1 (active); 0 (inactive).
Throughout, for hitc CCTE Shafer MEA dev network spike duration std: key: 1 (active); 0 (inactive).
Throughout, for hitc CCTE Shafer MEA dev network spike number: key: 1 (active); 0 (inactive).
Throughout, for hitc CCTE Shafer MEA dev network spike peak: key: 1 (active); 0 (inactive).
Throughout, for hitc CCTE Shafer MEA dev per burst interspike interval: key: 1 (active); 0 (inactive).
Throughout, for hitc CCTE Shafer MEA dev per burst spike percent: key: 1 (active); 0 (inactive).
Throughout, for hitc CCTE Shafer MEA dev per network spike spike number mean: key: 1 (active); 0 (inactive).
Throughout, for hitc CCTE Shafer MEA dev per network spike spike percent: key: 1 (active); 0 (inactive).
Throughout, for hitc CCTE Shafer MEA dev spike duration mean: key: 1 (active); 0 (inactive).

Structure (SMILES)	hitc CCTE_Shafer_MEA_dev_AB (2D rat cortical cultures [1]; cytotoxicity AlamarBlue)	AC50 (2D rat cortical cultures [2]; [3]) [µM]	AC50 (2D rat cortical cultures [2]; [4]) [µM]	hitc CCTE_Shafer_MEA_dev_active_electrodes_number (2D rat cortical cultures [2]; aenm active_electrodes_number)	hitc CCTE_Shafer_MEA_dev_burst_duration_mean (2D rat cortical cultures [2])	hitc CCTE_Shafer_MEA_dev_burst_rate (2D rat cortical cultures [2])	hitc CCTE_Shafer_MEA_dev_bursting_electrodes_number (2D rat cortical cultures [2]; [5])	hitc CCTE_Shafer_MEA_dev_correlation_coefficient_mean (2D rat cortical cultures [2]; [6])	hitc CCTE_Shafer_MEA_dev_firing_rate_mean (2D rat cortical cultures [2])	hitc CCTE_Shafer_MEA_dev_inter_network_spike_interval_mean (2D rat cortical cultures [2])	hitc CCTE_Shafer_MEA_dev_interburst_interval_mean (2D rat cortical cultures [2])	hitc CCTE_Shafer_MEA_dev_mutual_information_norm (2D rat cortical cultures [2]; aenm mutual_information_norm)	hitc CCTE_Shafer_MEA_dev_network_spike_duration_std (2D rat cortical cultures [2])	hitc CCTE_Shafer_MEA_dev_network_spike_number (2D rat cortical cultures [2])	hitc CCTE_Shafer_MEA_dev_network_spike_peak (2D rat cortical cultures [2]; aenm network_spike_peak)	hitc CCTE_Shafer_MEA_dev_per_burst_interspike_interval (2D rat cortical cultures [2])	hitc CCTE_Shafer_MEA_dev_per_burst_spike_percent (2D rat cortical cultures [2]; aenm per_burst_spike_percent)	hitc CCTE_Shafer_MEA_dev_per_network_spike_spike_number_mean (2D rat cortical cultures [2]; [7])	hitc CCTE_Shafer_MEA_dev_per_network_spike_spike_percent (2D rat cortical cultures [2]; [8])	hitc CCTE_Shafer_MEA_dev_spike_duration_mean (2D rat cortical cultures [2]; aenm spike_duration_mean)	other results
CCCC(CCC)C(=O)O [Sodium valproate]	0	576	488	0	0	0	0	0	0	0	0	0	0	0	0	0	0	1	1	0	Number of active endpoints in the rNFA (2D rat cortical cultures [2]; of 17 MEA endpoints, ref Brown et al. [2016], Carstens et al. [2022], Frank et al. [2017b], Shafer et al. [2019], ToxCast invitrodb (v4.2)): two; Concentrations at which active in the rNFA (2D rat cortical cultures [2]; [9]): exceeding 450 µM; AC50 (BrainSpheres; Homo sapiens, 312 h, resazurin): 45 µM; BMD BrainSphere.Cyto (BrainSpheres; human): 117 µM; Cytotoxicity hit (BrainSpheres; human): 0; hitc BrainSphere.Cyto (BrainSpheres; human): 0
Brc1ccc(Oc2ccc(Br)cc2Br)c(Br)c1 [BDE- 47]	1	4	15.1	1	0	0	1	1	0	0	0	1	0	0	1	0	1	1	1	1	AC50 (2D rat cortical cultures [1]; read-out: ac50 CCTE_Shafer_MEA_dev_AB, rNFA mc5, cytotoxicity AlamarBlue): 8.31 µM; Cytotoxicity in the resazurin assay of the rNFA (in words) (2D rat cortical cultures [1]; [9]): demonstrating cytotoxicity in the rNFA; AC50 (2D rat cortical cultures [2]; aenm active_electrodes_number, read-out: ac50 CCTE_Shafer_MEA_dev_active_electrodes_number): 10 µM; AC50 (2D rat cortical cultures [2]; aenm bursting_electrodes_number, read-out: ac50 CCTE_Shafer_MEA_dev_bursting_electrodes_number): 0.023 µM; AC50 (2D rat cortical cultures [2]; aenm correlation_coefficient_mean, read-out: ac50 CCTE_Shafer_MEA_dev_correlation_coefficient_mean): 4.26 µM; AC50 (2D rat cortical cultures [2]; aenm mutual_information_norm, read-out: ac50 CCTE_Shafer_MEA_dev_mutual_information_norm): 0.013 µM; AC50 (2D rat cortical cultures [2]; aenm network_spike_peak, read-out: ac50 CCTE_Shafer_MEA_dev_network_spike_peak): 10 µM; AC50 (2D rat cortical cultures [2]; aenm per_burst_spike_percent, read-out: ac50 CCTE_Shafer_MEA_dev_per_burst_spike_percent): 14.2 µM; AC50 (2D rat cortical cultures [2]; aenm spike_duration_mean, read-out: ac50 CCTE_Shafer_MEA_dev_spike_duration_mean): 15 µM; Cytotoxicity hit (BrainSpheres; resazurin, after 13 days of exposure): 0; hitc BrainSphere.Cyto (BrainSpheres; resazurin, day 13, tcplfit2): 0; AC50 (BrainSpheres; resazurin): 45 µM; BMD BrainSphere.Cyto (BrainSpheres; tcplfit2 BMD at benchmark response (1.349*SD of baseline controls)): 79 µM; ACC BrainSphere.Cyto (BrainSpheres; tcplfit2 output ACC, activity cutoff in Supplemental Table 1): 89 µM; Top BrainSphere.Cyto (BrainSpheres; top of winning model, response normalized as percent of vehicle control, negative = decrease): 4.9
